Active and inactive are the calls of the source. The calls are words filed in the database; no cut-off is given here.
Assays:
Zika virus [1] = assay: Antiviral activity against ZIKV infected in human A549 cells at 50 uM by microtiter assay relative to control; assay type: functional
Zika virus [2] = assay: Antiviral activity against ZIKV ZG-01 infected in human A549 cells assessed as reduction in viral induced cytopathic effect by measuring reduction in PFU measured after 4 days by neutral red staining based plaque assay; assay type: functional, organism-based; settings: ZG-01, A549, 96 h; for EC90: time 4 day
A549 [3] = assay: Cytotoxicity against human A549 cells assessed as cell growth inhibition measured after 24 hrs by MTT assay; assay type: functional
A549 [4] = assay: Downregulation of ZIKV E protein cleaved caspase 3 expression in human A549 cells at 5 to 25 uM by immunofluorescence analysis; assay type: functional, cell-based; settings: dose 5-25 µM
Zika virus [5] = assay: Antiviral activity against ZIKV ZG-01 infected in African green monkey Vero cells assessed as reduction in viral induced cytopathic effect by measuring reduction in PFU measured after 4 days by neutral red staining based plaque assay; assay type: functional, organism-based; settings: ZG-01, Vero, 96 h; for EC90: time 4 day
Vero [6] = assay: Downregulation of ZIKV E protein cleaved caspase 3 expression in African green monkey Vero cells at 10 to 50 uM measured after 48 hrs by Western blotting analysis; assay type: functional, cell-based; settings: Chlorocebus sabaeus, dose 10-50 µM
Zika virus [7] = assay: Antiviral activity against ZIKV MR766 infected in human Huh-7 cells assessed as reduction in viral induced cytopathic effect by measuring reduction in PFU measured after 4 days by neutral red staining based plaque assay; assay type: functional, organism-based; settings: MR766, Huh-7, 96 h; for EC90: time 4 day
Zika virus [8] = assay: Antiviral activity against ZIKV ZG-01 infected in human SNB-19 cells assessed as reduction in viral induced cytopathic effect by measuring reduction in PFU measured after 4 days by neutral red staining based plaque assay; assay type: functional, organism-based; settings: ZG-01, SNB-19, 96 h; for EC90: time 4 day
Zika virus [9] = assay: Antiviral activity against ZIKV MR766 infected in human A549 cells assessed as reduction in viral induced cytopathic effect by measuring reduction in PFU measured after 4 days by neutral red staining based plaque assay; assay type: functional, organism-based; settings: MR766, A549, 96 h; for EC90: time 4 day
Zika virus [10] = assay: Antiviral activity against ZIKV MR766 infected in human SNB-19 cells assessed as reduction in viral induced cytopathic effect by measuring reduction in PFU measured after 4 days by neutral red staining based plaque assay; assay type: functional, organism-based; settings: MR766, SNB-19, 96 h; for EC90: time 4 day
A549 [11] = assay: Downregulation of ZIKV E protein cleaved caspase 3 expression in human A549 cells at 10 to 50 uM measured after 48 hrs by Western blotting analysis; assay type: functional, cell-based; settings: dose 10-50 µM
Zika virus [12] = assay: Antiviral activity against ZIKV ZG-01 infected in human Huh-7 cells assessed as reduction in viral induced cytopathic effect by measuring reduction in PFU measured after 4 days by neutral red staining based plaque assay; assay type: functional, organism-based; settings: ZG-01, Huh-7, 96 h; for EC90: time 4 day
SNB-19 = assay: Cytotoxicity against human SNB-19 cells assessed as cell growth inhibition measured after 24 hrs by MTT assay; assay type: functional
Huh-7 = assay: Cytotoxicity against human Huh-7 cells assessed as cell growth inhibition measured after 24 hrs by MTT assay; assay type: functional
[13] = Cytotoxicity against African green monkey Vero cells assessed as cell growth inhibition measured after 24 hrs by MTT assay; assay type: toxicity, cell-based; settings: chlorocebus sabaeus
Zika virus [14] = assay: Antiviral activity against ZIKV MR766 infected in African green monkey Vero cells assessed as reduction in viral induced cytopathic effect by measuring reduction in PFU measured after 4 days by neutral red staining based plaque assay; assay type: functional, organism-based; settings: 96 h; for EC90: time 4 day
NS5 = NS5 (Zika virus, UniProt A0A143MHK7); assay: Binding affinity to N-terminal His-tagged recombinant ZIKV ZG-01 RdRp (272 to 903 residues) expressed in Escherichia coli rosetta by surface plasmon resonance assay
A549 [15] = assay: Downregulation of ZIKV E protein cleaved caspase 3 expression in human A549 cells at 5 to 25 uM measured after 48 hrs by Western blotting analysis; assay type: functional, cell-based; settings: dose 5-25 µM
A549 [16] = assay: Induction of mitochondrial membrane potential loss in human A549 cells at 50 to 100 uM by JC-1 staining based fluorescence microscope; assay type: functional, cell-based; settings: dose 50-100 µM
A549 [17] = assay: Downregulation of ZIKV E protein cleaved caspase 3 expression in human A549 cells at 2.5 to 25 uM by immunofluorescence analysis; assay type: functional, cell-based; settings: dose 2.5-25 µM
Vero [18] = assay: Downregulation of ZIKV E protein cleaved caspase 3 expression in African green monkey Vero cells at 5 to 25 uM measured after 48 hrs by Western blotting analysis; assay type: functional, cell-based; settings: Chlorocebus sabaeus, dose 5-25 µM

Sequence of NS5 (A0A143MHK7 whole entry, the tested form may be a part): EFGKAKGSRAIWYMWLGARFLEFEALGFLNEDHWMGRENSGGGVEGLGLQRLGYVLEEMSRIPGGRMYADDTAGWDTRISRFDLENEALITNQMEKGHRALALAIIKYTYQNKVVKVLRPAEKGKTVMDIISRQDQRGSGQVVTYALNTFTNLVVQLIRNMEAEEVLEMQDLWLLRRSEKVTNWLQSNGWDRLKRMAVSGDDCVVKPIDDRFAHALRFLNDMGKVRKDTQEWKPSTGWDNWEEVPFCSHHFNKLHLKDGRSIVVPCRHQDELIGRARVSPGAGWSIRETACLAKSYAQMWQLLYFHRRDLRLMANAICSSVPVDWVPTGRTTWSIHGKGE

SMILES: Cc1ncnc2c1c(C#Cc1nccs1)cn2[C@@H]1O[C@H](CO)[C@@H](O)[C@@]1(C)F
- Activity (Zika virus [1]): <10%

SMILES: Cc1ncnc2c1c(C#Cc1ccccc1C(F)(F)F)cn2[C@@H]1O[C@H](CO)[C@@H](O)[C@@]1(C)F
- Activity (Zika virus [1]): 34.4%

SMILES: Cc1ncnc2c1c(C#Cc1ccccc1)cn2[C@@H]1O[C@H](CO)[C@@H](O)[C@@]1(C)F
- EC50 (Zika virus [2]): 13.8 µM
- EC90 (Zika virus [2]): 33.6 µM
- CC50 (A549 [3]): > 50 µM

SMILES: Cc1ncnc2c1c(C#CC(C)(C)C)cn2[C@@H]1O[C@H](CO)[C@@H](O)[C@@]1(C)F
- Activity (Zika virus [1]): 22.4%

SMILES: Cc1ncnc2c1c(C#Cc1ccccc1Br)cn2[C@@H]1O[C@H](CO)[C@@H](O)[C@@]1(C)F
- Activity (Zika virus [1]): >90%
- EC50 (Zika virus [2]): 9.6 µM
- EC90 (Zika virus [2]): 19.7 µM
- CC50 (A549 [3]): > 50 µM

SMILES: NC(=O)c1ncn([C@@H]2O[C@H](CO)[C@@H](O)[C@H]2O)n1 [RIBAVIRIN]
- Activity (A549 [4]): inactive
- EC50 (Zika virus [5]): > 80 µM
- EC90 (Zika virus [5]): > 80 µM
- Activity (Vero [6]): inactive
- EC50 (Zika virus [7]): 17.7 µM
- EC90 (Zika virus [7]): 51 µM
- EC50 (Zika virus [8]): > 80 µM
- EC90 (Zika virus [8]): > 80 µM
- EC50 (Zika virus [9]): 38.1 µM
- EC90 (Zika virus [9]): 75.9 µM
- EC50 (Zika virus [10]): > 80 µM
- EC90 (Zika virus [10]): > 80 µM
- Activity (A549 [11]): inactive
- EC50 (Zika virus [12]): 14.1 µM
- EC90 (Zika virus [12]): 47.4 µM
- CC50 (SNB-19): 485 µM
- EC50 (Zika virus [2]): 36.1 µM
- EC90 (Zika virus [2]): 70.3 µM
- CC50 (Huh-7): 513 µM
- CC50 at 24 h [13]: 470 µM
- EC50 (Zika virus [14]): > 80 µM
- EC90 (Zika virus [14]): > 80 µM
- CC50 (A549 [3]): > 50 µM

SMILES: Cc1ncnc2c1c(/C=C/c1ccccc1)cn2[C@@H]1O[C@H](CO)[C@@H](O)[C@@]1(C)F
- Activity (Zika virus [1]): <10%

SMILES: C#Cc1cn([C@@H]2O[C@H](CO)[C@@H](O)[C@@]2(C)F)c2ncnc(C)c12
- Activity (Zika virus [1]): <10%

SMILES: Cc1ncnc2c1c(C#CC1CC1)cn2[C@@H]1O[C@H](CO)[C@@H](O)[C@@]1(C)F
- Activity (Zika virus [1]): <10%

SMILES: COc1ccccc1C#Cc1cn([C@@H]2O[C@H](CO)[C@@H](O)[C@@]2(C)F)c2ncnc(C)c12
- Activity (Zika virus [1]): >90%
- EC50 (Zika virus [2]): 40.3 µM
- EC90 (Zika virus [2]): > 50 µM
- CC50 (A549 [3]): > 50 µM

SMILES: Cc1ccc(C#Cc2cn([C@@H]3O[C@H](CO)[C@@H](O)[C@@]3(C)F)c3ncnc(C)c23)cc1
- Activity (Zika virus [1]): >90%
- EC50 (Zika virus [2]): 11.8 µM
- EC90 (Zika virus [2]): 24.2 µM
- CC50 (A549 [3]): > 50 µM

SMILES: COc1cccc(C#Cc2cn([C@@H]3O[C@H](CO)[C@@H](O)[C@@]3(C)F)c3ncnc(C)c23)c1
- Activity (Zika virus [1]): >90%
- EC50 (Zika virus [2]): 14.8 µM
- EC90 (Zika virus [2]): 40.4 µM
- CC50 (A549 [3]): > 50 µM

SMILES: Cc1ccc(C#Cc2cn([C@@H]3O[C@H](CO)[C@@H](O)[C@@]3(C)F)c3ncnc(C)c23)s1
- Activity (Zika virus [1]): 43.9%

SMILES: COCc1ccccc1C#Cc1cn([C@@H]2O[C@H](CO)[C@@H](O)[C@@]2(C)F)c2ncnc(C)c12
- Activity (Zika virus [1]): >90%
- EC50 (Zika virus [2]): 13.5 µM
- EC90 (Zika virus [2]): > 50 µM
- CC50 (A549 [3]): > 50 µM

SMILES: Cc1cccc(C#Cc2cn([C@@H]3O[C@H](CO)[C@@H](O)[C@@]3(C)F)c3ncnc(C)c23)n1
- Activity (Zika virus [1]): <10%

SMILES: Cc1ncnc2c1c(C#Cc1ccc(Br)c(F)c1)cn2[C@@H]1O[C@H](CO)[C@@H](O)[C@@]1(C)F
- Kd (NS5): 1.87 µM
- EC50 (Zika virus [5]): 3.1 µM
- EC90 (Zika virus [5]): 7.1 µM
- EC50 (Zika virus [7]): 6.1 µM
- EC90 (Zika virus [7]): 14.6 µM
- EC50 (Zika virus [8]): 6.4 µM
- EC90 (Zika virus [8]): 16.6 µM
- Activity (A549 [15]): Active
- EC50 (Zika virus [9]): 6.4 µM
- EC90 (Zika virus [9]): 18 µM
- EC50 (Zika virus [10]): 8.9 µM
- EC90 (Zika virus [10]): 19.8 µM
- EC50 (Zika virus [12]): 5.7 µM
- EC90 (Zika virus [12]): 16.4 µM
- CC50 (SNB-19): 49.4 µM
- EC50 (Zika virus [2]): 2.8 µM
- EC90 (Zika virus [2]): 6.8 µM
- Activity (A549 [16]): inactive
- CC50 (Huh-7): 43.8 µM
- Activity (A549 [17]): Active
- Activity (Vero [18]): Active
- CC50 at 24 h [13]: 46.8 µM
- EC50 (Zika virus [14]): 7.7 µM
- EC90 (Zika virus [14]): 18.6 µM
- CC50 (A549 [3]): > 50 µM

SMILES: CCOC(=O)c1ccc(C#Cc2cn([C@@H]3O[C@H](CO)[C@@H](O)[C@@]3(C)F)c3ncnc(C)c23)s1
- Activity (Zika virus [1]): >90%
- EC50 (Zika virus [2]): 39.8 µM
- EC90 (Zika virus [2]): > 50 µM
- CC50 (A549 [3]): > 50 µM

SMILES: C#C[C@@]1(O)[C@H](O)[C@@H](CO)O[C@H]1n1ccc2c(N)ncnc21
- Kd (NS5): 3.43 µM
- EC50 (Zika virus [2]): 14 µM
- EC90 (Zika virus [2]): 30.9 µM
- CC50 (A549 [3]): > 50 µM

SMILES: Cc1ccccc1C#Cc1cn([C@@H]2O[C@H](CO)[C@@H](O)[C@@]2(C)F)c2ncnc(C)c12
- Activity (Zika virus [1]): >90%
- EC50 (Zika virus [2]): 8.5 µM
- EC90 (Zika virus [2]): 25.7 µM
- CC50 (A549 [3]): > 50 µM

SMILES: Cc1ncnc2c1c(C#Cc1ccc(F)cc1)cn2[C@@H]1O[C@H](CO)[C@@H](O)[C@@]1(C)F
- Activity (Zika virus [1]): 37.5%

Source: ChEMBL document CHEMBL5236565, “Design, synthesis, and biological evaluation of novel 2'-methyl-2'-fluoro-6-methyl-7-alkynyl-7-deazapurine nucleoside analogs as anti-Zika virus agents” (Eur J Med Chem, 2022)
